# Results published in ChEMBL document CHEMBL1201862, “PubChem BioAssay data set” (2004).
#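 Each compound was tested at five concentrations against cells in 96-well plates for 48 hours. Here, GI50 denotes the concentration required for 50% inhibition of growth.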 Active and inactive are the calls of the source. Rule as the data show it: active = GI50 up to about 1.1 µM and inactive = higher.
# Key:
# Assay in all cases: NCI-60 cell line screen, 48 h
# HCT-15 = system: HCT-15
# NCI-H23 = system: NCI-H23
# SN12C = system: SN12C
# OVCAR-4 = system: OVCAR-4
# SF-268 = system: SF-268
# COLO 205 = system: COLO 205
# CCRF-CEM = system: CCRF-CEM
# RXF 393 = system: RXF 393
# MDA-MB-435 = system: MDA-MB-435
# SNB-19 = system: SNB-19
# BT-549 = system: BT-549
# K562 = system: K562
# TK-10 = system: TK-10
# NCI/ADR-RES = system: NCI/ADR-RES
# OVCAR-3 = system: OVCAR-3
# EKVX = system: EKVX
# SW-620 = system: SW-620
# MDA-N = system: MDA-N
# SR = system: SR
# UO-31 = system: UO-31
# HOP-62 = system: HOP-62
# KM12 = system: KM12
# SNB-75 = system: SNB-75
# M14 = system: M14
# HT-29 = system: HT-29
# UACC-62 = system: UACC-62
# ACHN = system: ACHN
# NCI-H460 = system: NCI-H460
# SK-OV-3 = system: SK-OV-3
# 786-0 = system: 786-0
# HL-60 = system: HL-60
# SK-MEL-2 = system: SK-MEL-2
# HCT-116 = system: HCT-116
# MCF7 = system: MCF7
# NCI-H226 = system: NCI-H226
# Hs-578T = system: Hs-578T
# RPMI-8226 = system: RPMI-8226
# DU-145 = system: DU-145
# Malme-3M = system: Malme-3M
# MOLT-4 = system: MOLT-4
# OVCAR-5 = system: OVCAR-5
# OVCAR-8 = system: OVCAR-8
# IGROV-1 = system: IGROV-1
# SK-MEL-28 = system: SK-MEL-28
# A549 = system: A549
# SF-539 = system: SF-539
# LOX IMVI = system: LOX IMVI
# MDA-MB-231 = system: MDA-MB-231
# SF-295 = system: SF-295
# NCI-H522 = system: NCI-H522
# SK-MEL-5 = system: SK-MEL-5
# CAKI-1 = system: CAKI-1
# UACC-257 = system: UACC-257
# PC-3 = system: PC-3
# U-251 = system: U-251
# T47D = system: T47D
# A498 = system: A498
# HOP-92 = system: HOP-92
# HCC 2998 = system: HCC 2998
structure (smiles),measurement,setting,value
COC1OC(CO)C(O)C(OC(=O)c2cc(O)c(O)c(O)c2)C1OC(=O)c1cc(O)c(O)c(O)c1 (configuration not stated),GI50,HCT-15,66.2 µM
same,GI50,NCI-H23,> 100 µM (inactive)
same,GI50,SN12C,61.9 µM (inactive)
same,GI50,OVCAR-4,23.1 µM (inactive)
same,GI50,SF-268,59.4 µM (inactive)
same,GI50,COLO 205,59.8 µM (inactive)
same,GI50,CCRF-CEM,42.7 µM (inactive)
same,GI50,RXF 393,> 100 µM (inactive)
same,GI50,MDA-MB-435,33.4 µM (inactive)
same,GI50,SNB-19,> 100 µM (inactive)
same,GI50,BT-549,> 100 µM (inactive)
same,GI50,K562,35.6 µM (inactive)
same,GI50,TK-10,> 100 µM (inactive)
same,GI50,NCI/ADR-RES,60.4 µM (inactive)
same,GI50,OVCAR-3,> 100 µM (inactive)
same,GI50,EKVX,> 100 µM (inactive)
same,GI50,SW-620,41.6 µM (inactive)
same,GI50,MDA-N,25.1 µM (inactive)
same,GI50,SR,53.7 µM (inactive)
same,GI50,UO-31,> 100 µM (inactive)
same,GI50,HOP-62,91 µM (inactive)
same,GI50,KM12,> 100 µM (inactive)
same,GI50,SNB-75,> 100 µM (inactive)
same,GI50,M14,45.4 µM (inactive)
same,GI50,HT-29,65 µM (inactive)
same,GI50,UACC-62,> 10 µM (inactive)
same,GI50,ACHN,58.2 µM (inactive)
same,GI50,NCI-H460,69.5 µM (inactive)
same,GI50,SK-OV-3,> 100 µM (inactive)
same,GI50,786-0,> 100 µM (inactive)
same,GI50,HL-60,51.9 µM (inactive)
same,GI50,SK-MEL-2,> 100 µM (inactive)
same,GI50,HCT-116,37.7 µM (inactive)
same,GI50,MCF7,> 100 µM (inactive)
same,GI50,NCI-H226,> 100 µM (inactive)
same,GI50,Hs-578T,> 100 µM (inactive)
same,GI50,RPMI-8226,> 100 µM (inactive)
same,GI50,DU-145,> 100 µM (inactive)
same,GI50,Malme-3M,> 100 µM (inactive)
same,GI50,MOLT-4,79.4 µM (inactive)
same,GI50,OVCAR-5,> 100 µM (inactive)
same,GI50,OVCAR-8,> 100 µM (inactive)
same,GI50,IGROV-1,> 100 µM (inactive)
same,GI50,SK-MEL-28,> 100 µM (inactive)
same,GI50,A549,> 100 µM (inactive)
same,GI50,SF-539,83.6 µM (inactive)
same,GI50,LOX IMVI,23.3 µM (inactive)
same,GI50,MDA-MB-231,> 100 µM (inactive)
same,GI50,SF-295,20.2 µM (inactive)
same,GI50,NCI-H522,30.5 µM (inactive)
same,GI50,SK-MEL-5,36.7 µM (inactive)
same,GI50,CAKI-1,48.3 µM (inactive)
same,GI50,UACC-257,95.3 µM (inactive)
same,GI50,PC-3,95.5 µM (inactive)
same,GI50,U-251,> 100 µM (inactive)
CNc1ccc(C(=O)CC(O)CCC(C)C2OC(=O)CC(O)CC(=O)CC(O)CC(O)CC(O)CC(O)CC3(O)CC(O)C(C(=O)NCCN4CCOCC4)C(CC(OC4OC(C)C(O)C(N)C4O)\C=C/C=C\C=C/C=C/C=C/C=C\C=C/C2C)O3)cc1 (configuration not stated),GI50,SN12C,0.417 µM (active)
same,GI50,OVCAR-4,2.74 µM (inactive)
same,GI50,RXF 393,> 100 µM (inactive)
same,GI50,MDA-MB-435,1.56 µM (inactive)
same,GI50,SNB-19,> 100 µM (inactive)
same,GI50,BT-549,1.64 µM (inactive)
same,GI50,TK-10,1.52 µM (inactive)
same,GI50,SW-620,> 100 µM (inactive)
same,GI50,MDA-N,0.701 µM (active)
same,GI50,UO-31,0.404 µM (active)
same,GI50,KM12,2.84 µM (inactive)
same,GI50,SNB-75,> 100 µM (inactive)
same,GI50,UACC-62,1.68 µM (inactive)
same,GI50,T47D,> 100 µM (inactive)
same,GI50,786-0,1.01 µM (active)
same,GI50,SK-MEL-2,6.43 µM (inactive)
same,GI50,HCT-116,> 100 µM (inactive)
same,GI50,NCI-H226,3.81 µM (inactive)
same,GI50,Malme-3M,0.267 µM (active)
same,GI50,MOLT-4,2.3 µM (inactive)
same,GI50,OVCAR-8,4.23 µM (inactive)
same,GI50,A498,0.321 µM (active)
same,GI50,IGROV-1,6.34 µM (inactive)
same,GI50,SF-539,16 µM (inactive)
same,GI50,HOP-92,> 100 µM (inactive)
same,GI50,NCI-H522,0.493 µM (active)
same,GI50,UACC-257,0.537 µM (active)
COC1O[C@H]2[C@H]3[C@@H]1[C@@H](OS(=O)(=O)c1ccc(C)cc1)C(=O)N3C[C@H]2O (some centres not stated),GI50,HCT-15,> 100 µM
same,GI50,NCI-H23,> 100 µM (inactive)
same,GI50,OVCAR-4,> 100 µM (inactive)
same,GI50,SF-268,> 100 µM (inactive)
same,GI50,COLO 205,> 100 µM (inactive)
same,GI50,RXF 393,17.9 µM (inactive)
same,GI50,MDA-MB-435,> 100 µM (inactive)
same,GI50,SNB-19,> 100 µM (inactive)
same,GI50,BT-549,> 100 µM (inactive)
same,GI50,K562,65.9 µM (inactive)
same,GI50,TK-10,> 100 µM (inactive)
same,GI50,NCI/ADR-RES,> 100 µM (inactive)
same,GI50,OVCAR-3,> 100 µM (inactive)
same,GI50,EKVX,> 100 µM (inactive)
same,GI50,SW-620,> 100 µM (inactive)
same,GI50,SR,> 100 µM (inactive)
same,GI50,UO-31,> 100 µM (inactive)
same,GI50,HOP-62,> 100 µM (inactive)
same,GI50,KM12,> 100 µM (inactive)
same,GI50,M14,> 100 µM (inactive)
same,GI50,HT-29,> 100 µM (inactive)
same,GI50,UACC-62,> 100 µM (inactive)
same,GI50,ACHN,> 100 µM (inactive)
same,GI50,T47D,64.4 µM (inactive)
same,GI50,NCI-H460,> 100 µM (inactive)
same,GI50,SK-OV-3,> 100 µM (inactive)
same,GI50,786-0,> 100 µM (inactive)
same,GI50,SK-MEL-2,> 100 µM (inactive)
same,GI50,HCT-116,> 100 µM (inactive)
same,GI50,MCF7,> 100 µM (inactive)
same,GI50,NCI-H226,> 100 µM (inactive)
same,GI50,RPMI-8226,61.2 µM (inactive)
same,GI50,DU-145,> 100 µM (inactive)
same,GI50,Malme-3M,> 100 µM (inactive)
same,GI50,MOLT-4,48.5 µM (inactive)
same,GI50,OVCAR-5,> 100 µM (inactive)
same,GI50,OVCAR-8,> 100 µM (inactive)
same,GI50,A498,> 100 µM (inactive)
same,GI50,SK-MEL-28,> 100 µM (inactive)
same,GI50,A549,> 100 µM (inactive)
same,GI50,SF-539,> 100 µM (inactive)
same,GI50,HCC 2998,> 100 µM (inactive)
same,GI50,LOX IMVI,> 100 µM (inactive)
same,GI50,MDA-MB-231,> 100 µM (inactive)
same,GI50,SF-295,> 100 µM (inactive)
same,GI50,SK-MEL-5,> 100 µM (inactive)
same,GI50,CAKI-1,> 100 µM (inactive)
same,GI50,UACC-257,> 100 µM (inactive)
same,GI50,PC-3,81.8 µM (inactive)
same,GI50,U-251,> 100 µM (inactive)
